Reference: PubChem BioAssay AID2305 (GlaxoSmithKline (GSK), 2010)

test system: P. falciparum 3D7 growth, pLDH absorbance; assay: P. falciparum 3D7 growth inhibition, dose response, strain 3D7 (AID 2305)

Compound	IC50
O=C(NC1CCN(Cc2ccccc2)CC1)c1ccc(-c2nc3cc(F)c(F)cc3[nH]2)s1	830 nM
Nc1nccc2ccc(-c3cccc(O)c3)cc12	640 nM
CC(C)(C)OC(=O)N1CCN(c2ccccc2NC(=O)c2cccc(C(F)(F)F)c2Oc2ccc(F)cc2)CC1	860 nM
Cc1c(N)ccc2[nH]c(-c3ccc(N)cc3)nc12	1210 nM
Nc1cc(-c2ccc3c(N)nccc3c2)ccc1Cl	1540 nM
Cc1ccc2c(O)c([N+](=O)[O-])c(=O)[nH]c2c1	420 nM
Cc1cccc2c3c([nH]c12)C1(CCN(CCc2ccccc2)CC1)NC(C(=O)NCc1ccccc1)C3 (stereo not given)	1000 nM
O=c1cc(NCCCNCc2cc(Cl)cc(Cl)c2OCc2ccccc2)[nH]c2ccccc12	1030 nM
COc1cc2nc(NCCn3nc(C)cc3C)nc(NCCc3ccccc3)c2cc1OC	440 nM
COc1cc(SC)c(Br)cc1-c1nc2ccncc2[nH]1	1100 nM
COc1ccc2nccc([C@@H](O)CN3CCC(NC(=O)/C=C/c4ccc(F)c5ccccc45)CC3)c2c1	180 nM
CC1(C)CCC(C)(C)c2c1ccc(C1CCN(CCCCNC(=O)c3ccc(-c4ccc(Cl)cc4)cc3)CC1)c2O	480 nM
CC1(C)N=C(N)N=C(N)N1c1cc(Cl)c(Cl)c(Cl)c1	10 nM
CC(C)CCNc1nc(NCc2ccccc2)c2cc(O)ccc2n1	110 nM
CCN(c1ccc(O)c(CN2CCCCC2)c1)c1ccc([N+](=O)[O-])cn1	890 nM
COc1ccc2nccc([C@@H](O)CN3CCC(NC(=O)/C=C/c4cc(F)cc(Br)c4)CC3)c2c1	170 nM
Cc1cc(=O)c(-c2ccc(OCc3ccc(OC(F)(F)F)cc3)cc2)c(C)[nH]1	740 nM
CC(=O)C1(c2ccccc2)CCN(CCC2(c3ccc(Cl)c(Cl)c3)CN(C(=O)C3CCCCC3)CCO2)CC1 (stereo not given)	310 nM
N#Cc1ccc(-n2cc(C(=O)Nc3ccc4c(c3)CCN(C3CCC3)CC4)c(C(F)(F)F)n2)cc1	290 nM
COc1ccccc1Nc1nc(C)cc(NCc2ccc(-n3ccnc3)cc2)n1	1050 nM

Compound	IC50
N#Cc1ccc(-c2ccc(C(=O)Nc3ccc4c(c3)CCN(C3CCC3)CC4)nc2)cc1	700 nM
Cc1nc(N)nc(N)c1CCCOc1ccccc1Cl	220 nM
O=C(Cn1c(CCc2cccc(F)c2F)cc(=O)c2ccccc21)N(CCN1CCCCC1)Cc1ccc(-c2ccc(C(F)(F)F)cc2)cc1	760 nM
Cc1nc(N2CCC(C)CC2)c2c3c(sc2n1)CCCC3	1060 nM
COc1cccc(-c2cc(-c3ccc(NC(=O)c4ccccc4)cc3)c3c(N)ncnc3n2)c1	590 nM
Cc1cc(Nc2ncc3c(n2)N(C2CCC2)CC3)ccc1N1CCN(C)CC1	1190 nM
CCOC(=O)c1ccc(NC(=O)Nc2cccc(-c3ccc(-c4nc5ccccc5[nH]4)cc3)c2)cc1	210 nM
Cc1cccc2[nH]c(-c3cccc(-c4cccc(CN5CCN(c6ccc(C#N)cn6)CC5)c4)c3)nc12	1160 nM
COc1cc(C2CCN(CCCCNC(=O)c3ccc(NC(=O)c4cc(C(F)(F)F)cc(C(F)(F)F)c4)cc3)CC2)ccc1OC(C)C	150 nM
CCCCN=C(N)Nc1ccc(OCCCOc2ccc(NC(N)=NCCCC)cc2)cc1	160 nM
O=C(NC1CCN(CC2(c3ccccc3)CCCC2)CC1)c1[nH]ncc1Cl	1040 nM
O=c1cc(NCCCNC2CCc3ccc(Cl)cc32)[nH]c2ccccc12 (stereo not given)	860 nM
COc1ccc2nc3cc(Cl)ccc3c(NCCc3ccccc3)c2c1	950 nM
CCOc1ccc(NC(=O)c2ccc(CN3CCCN(Cc4cccc(O)c4)CC3)cc2)cc1	1310 nM
COc1ccccc1C1CCN(C2CCC(NC(=O)/C=C/c3ccc4c(c3)OC(F)(F)O4)CC2)CC1 (stereo not given)	840 nM
Cc1cccc2[nH]c(-c3cccc(-c4ccc(C(=O)N5CCCCC5C(C)O)cc4)c3)nc12 (stereo not given)	370 nM
COc1cc(NC(=O)c2ccc3oc4ccccc4c3c2)ccc1OCCN1CCCCC1	920 nM
CCN(CC)CCNC(=O)c1ccc(NC(=O)c2cc3c(C)nn(-c4ccc(Cl)cc4)c3s2)cc1	250 nM
COc1ccccc1-n1c(SCC(=O)Nc2ccccc2F)nc2cccnc21	420 nM
CNC(=O)c1cnc(Nc2ccc(N3CCN(C)CC3)cc2)nc1Nc1cccc([N+](=O)[O-])c1	290 nM
